According to patent publication US11773086B2, “Fungal modulators” (TRUSTEES OF BOSTON UNIVERSITY, priority 2020, dated 2023):

Tests used:
MRP1 (ABCC1) = biological target: T1, MRP1 (ABCC1) (Homo sapiens, UniProt P33527); assay: Calcein AM accumulation in MRP1-overexpressing HEK293 cells (flow cytometry); type: cell-based, mammalian; conditions: Calcein AM 2.5 μg/mL
T1 construct: expressed in transfected cells; host or cells: HEK293
Experimental: P-gp overexpressing HEK293 cell lines were used to determine if azoffluxin treatment leads to a greater accumulation of fluorescent substrates (MFI) as determined by flow cytometry.
MDR1 (ABCB1) and MRP1 (ABCC1) was assessed using the fluorescent dyes rhodamine 6G (0.5 μg/mL) and Calcein AM (2.5 μg/mL), for each pump respectively, and the known inhibitor controls tariquidar (60 nM) and MK571 (30 μM) for each pump respectively. Listed data is shown by FIG. 12E (R6G) and FIG. 12F (Cal).

[1] = tested on: Saccharomyces cerevisiae (BY4741); assay: Azoffluxin dose-response with background fluconazole; type: cell-based; conditions: fluconazole-sensitive laboratory strain BY4741, background FLC 0.5 μg/mL
Experimental: FIGS. 2A-2E illustrate the above-described screening of the BU-CMD which identified azoffluxin as a fluconazole (FLC) potentiator against C. auris. […] Growth, as determined by optical density at 600 nm (OD600), is plotted in the presence of each CMD compound alone on the y-axis and in combination with FLC on the x-axis. Dotted lines represent 7-median absolute deviations from the median for each condition. […] FIG. 2B depicts the synergistic interactions. […] Growth was measured by the OD600 and normalized to the no drug control (see color bar). The fractional inhibitory concentration index (FICI) was calculated to determine the chemical interaction, with a value below 0.5 indicating synergy. […] FIG. 2D depicts FLC Etest strips in the presence and absence of 50 μM azoffluxin. […]
Compound potency was assessed alone by dose response assays or in combination with another compound by dose-response matrixes in 96-well plates, or 384-well, flat-bottom, microtiter plates (Corning) as previously described. […] Growth was quantified by measuring OD600 and corrected for medium background. All strains were assessed in biological duplicate experiments with technical duplicates. […] For dose-response matrixes fractional inhibitory concentration index at 90% growth inhibition (FICI90) was calculated as previously described. […]

C. auris B11801 = assay: Kidney fungal burden (CFU) in infected mice; type: in vivo; conditions: azoffluxin 10 mg/Kg SC four-times daily + fluconazole 32 mg/Kg IP twice daily, four days
Experimental: FIG. 10A depicts mammalian embryonic kidney (293T) cells expressing luciferase used to quantify mammalian cell growth in co-culture. Mammalian cells were seeded in 384-well plates in DMEM medium at 5×10^5 cells/mL overnight. After 24 hours the indicated concentration of compound (⋅ indicates combo treatment concentrations) was added along with 2.5×10^3 cells/mL of C. auris. Co-cultures were incubated for 48 hours at 37° C. and then the luminescence was measured as an output of mammalian cell growth. […] FIG. 10C depicts checkerboard assays performed as described in FIG. 2B with C. auris Clade IV isolate B11801. Relative growth was measured after 24 hours using OD600 and normalized to no-drug control wells (see color bar). The FICI calculated for each checkerboard is shown in the top right of each plot, with values<0.5 indicating synergy. […] Input is the CFU recovered in an aliquot of the fungal suspension use to inoculate mice. […] Fluconazole was administered at 32 mg/Kg IP twice daily and azoffluxin at 10 mg/Kg SC four-times daily. Error bars; SD, n=3 mice/treatment group.

[2] = tested on: FLC-resistant Candida auris; assay: Checkerboard (dose-response matrix) with fluconazole, FICI; type: cell-based
Experimental: Generally, the synergy is measured by determining the fractional inhibitory concentration (FIC) value of the combination. […] FIC values for both agents in a particular square/well are calculated in this way followed by determination of the FIC index (sum of the FICs of each agent in the particular square/well).
Compound potency was assessed alone by dose response assays or in combination with another compound by dose-response matrixes in 96-well plates, or 384-well, flat-bottom, microtiter plates (Corning) as previously described. Plates were incubated at 30° C. for the indicated time period. Growth was quantified by measuring OD600 and corrected for medium background. All strains were assessed in biological duplicate experiments with technical duplicates. Growth was normalized to untreated controls and plotted as a heat map using Java TreeView 1.1.6r4. For dose-response matrixes fractional inhibitory concentration index at 90% growth inhibition (FICI90) was calculated as previously described. The fluconazole Etest susceptibility assay was performed as previously described. Briefly, 200 μL of 5×10^6 cells/mL were plated on YPD agar (1%) plates with either with 50 μM azoffluxin or containing DMSO.

T1 sequence (P33527 whole entry): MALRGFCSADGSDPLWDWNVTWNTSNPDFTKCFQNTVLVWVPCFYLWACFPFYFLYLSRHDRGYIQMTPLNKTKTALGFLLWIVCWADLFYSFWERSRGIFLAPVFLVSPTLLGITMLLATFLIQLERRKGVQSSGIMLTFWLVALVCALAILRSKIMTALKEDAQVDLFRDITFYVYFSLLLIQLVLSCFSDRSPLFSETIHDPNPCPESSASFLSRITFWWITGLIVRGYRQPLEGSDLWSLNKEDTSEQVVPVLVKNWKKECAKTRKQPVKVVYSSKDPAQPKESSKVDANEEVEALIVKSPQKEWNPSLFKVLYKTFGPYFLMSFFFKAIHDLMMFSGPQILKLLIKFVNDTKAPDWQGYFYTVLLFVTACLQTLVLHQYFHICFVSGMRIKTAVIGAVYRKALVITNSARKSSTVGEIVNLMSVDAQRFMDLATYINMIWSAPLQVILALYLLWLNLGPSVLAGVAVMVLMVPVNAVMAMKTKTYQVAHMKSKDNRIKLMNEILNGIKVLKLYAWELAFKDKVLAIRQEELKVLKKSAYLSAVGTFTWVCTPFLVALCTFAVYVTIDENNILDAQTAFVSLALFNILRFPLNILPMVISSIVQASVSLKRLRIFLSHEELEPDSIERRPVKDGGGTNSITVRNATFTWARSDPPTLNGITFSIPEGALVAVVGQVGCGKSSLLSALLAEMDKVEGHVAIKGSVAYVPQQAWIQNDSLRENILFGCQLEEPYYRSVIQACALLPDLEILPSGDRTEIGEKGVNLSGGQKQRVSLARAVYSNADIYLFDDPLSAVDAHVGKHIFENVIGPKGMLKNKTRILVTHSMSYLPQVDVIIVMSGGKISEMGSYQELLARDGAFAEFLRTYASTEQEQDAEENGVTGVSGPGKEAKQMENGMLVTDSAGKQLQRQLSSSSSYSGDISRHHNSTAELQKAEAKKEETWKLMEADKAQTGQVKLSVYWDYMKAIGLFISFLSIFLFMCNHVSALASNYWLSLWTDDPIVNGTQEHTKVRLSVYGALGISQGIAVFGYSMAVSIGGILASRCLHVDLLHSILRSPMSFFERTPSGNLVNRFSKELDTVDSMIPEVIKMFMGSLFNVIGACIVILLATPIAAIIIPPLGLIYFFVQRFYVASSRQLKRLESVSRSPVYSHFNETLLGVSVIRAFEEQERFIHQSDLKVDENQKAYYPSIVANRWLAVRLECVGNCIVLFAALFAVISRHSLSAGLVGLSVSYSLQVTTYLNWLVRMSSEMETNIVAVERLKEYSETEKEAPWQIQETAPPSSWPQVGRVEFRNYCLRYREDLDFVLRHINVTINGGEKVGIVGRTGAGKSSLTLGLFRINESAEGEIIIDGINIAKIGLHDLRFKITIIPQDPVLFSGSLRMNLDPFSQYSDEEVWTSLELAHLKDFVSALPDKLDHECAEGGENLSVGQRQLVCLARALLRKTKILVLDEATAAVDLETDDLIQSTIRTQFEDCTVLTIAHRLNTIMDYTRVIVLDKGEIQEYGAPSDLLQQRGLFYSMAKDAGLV

Compound: C=C(C)C[C@@H](O)COc1cc2c(cc1C1(c3cc4c(cc3OC[C@H](O)CC(=C)C)OCO4)C(=O)Nc3cc(F)ccc31)OCO2 [CMLD012336]
- increase in calcein AM (Cal) (MRP1 (ABCC1)): 2.5 fold
- enhancement of fluconazole activity [1]: did not enhance the activity of fluconazole
- antifungal activity of fluconazole in mice (kidney CFU) (C. auris B11801): markedly increases the antifungal activity of fluconazole
- interaction with fluconazole ([2]; Clade III isolate B12037 lacking Erg11 V125A/F126L and Mrr1 N647T): potent synergistic interaction
- fractional inhibitory concentration index (FICI) ([2]; combination with fluconazole, C. auris Ci6684 (Erg11 Y132F), <0.5 = synergy): 0.25
- FICI ([2]; fractional inhibitory concentration index for enhancement of FLC activity in FLC-resistant Candida auris, <0.5 strong synergy, 2 = no synergy): 0.130
- potentiation of fluconazole across C. auris clades ([2]; isolates of the four major clades, Clade III the exception): potentiated fluconazole in multiple isolates from three of the four major clades
